Measured values published in patent publication US20230023092A1, “TREATMENT OF DEPRESSION AND OTHER VARIOUS DISORDERS WITH PSILOCYBIN” (COMPASS […], priority 2019, published 2023).

Key:
Format in all cases: in vivo, human
[1] = test system: healthy subjects; experiment: Toronto Empathy Questionnaire (TEQ); conditions: Day 7
Excerpt: In some embodiments, the Toronto Empathy Questionnaire (TEQ) is utilized to evaluate the safety and/or efficacy of psilocybin. The TEQ represents empathy as a primarily emotional process. […] The TEQ is a brief, reliable and valid instrument for the assessment of empathy. In some embodiments, after treating according to the methods of the disclosure, a subject's TEQ score increases by about 5%, about 10%, about 15%, about 20%, about 25%, about 30%, about 35%, about 40%, about 45%, about 50%, about 55%, about 60%, about 65%, about 70%, about 75%, about 80%, about 85%, about 90%, about 95%, or about 100%, about 110%, about 120%, about 130%, about 140%, about 150%, about 160%, about 170%, about 180%, about 190%, about 200%, about 210%, about 220%, about 230%, about 240%, about 250%, about 260%, about 270%, about 280%, about 290%, or about 300%, or more, compared to prior to treatment.
(§1) The Pictorial Empathy Test (PET), Reading the Mind in the Eyes Test (RMET), Scale of Social Responsibility (SSR), Social Value Orientation (SVO), and Toronto Empathy Questionnaire (TEQ) were performed. Table 20 summarizes the results of the mixed model for repeated measures (MMRM) analysis for each of the aforementioned social cognition panel scales measured on Day 7 and Day 84 after study drug administration.

[2] = test system: healthy subjects; experiment: Social Value Orientation (SVO)
Excerpt: In some embodiments, the Social Value Orientation (SVO) test is utilized to evaluate the safety and/or efficacy of psilocybin. The SVO Slider Measure has 6 primary items with 9 secondary (and optional) items. All of the items have the same general form. Each item is a resource allocation choice over a well-defined continuum of joint payoffs.
as §1

[3] = test system: healthy subjects; experiment: Five-Dimensional Altered States of Consciousness (5D-ASC) questionnaire; conditions: for 5D-ASC Anxiety, Mean / 5D-ASC Audio-visual synaesthesia, Mean / 5D-ASC Auditory alteration, Mean / 5D-ASC Blissful state, Mean / 5D-ASC Changed meaning of percepts, Mean / 5D-ASC Complex imagery, Mean / 5D-ASC Disembodiment, Mean / 5D-ASC Dread of ego dissolution, Mean / 5D-ASC Elementary imagery, Mean / 5D-ASC Experience of unity, Mean / 5D-ASC Impaired control and cognition, Mean / 5D-ASC Insightfulness, Mean / 5D-ASC Oceanic boundlessness, Mean / 5D-ASC Spiritual experience, Mean / 5D-ASC Vigilance reduction, Mean / 5D-ASC Visual restructuralisation, Mean: Post-Treatment Day 0, LS mean; for 5D-ASC Anxiety, Mean difference / 5D-ASC Audio-visual synaesthesia, Mean difference / 5D-ASC Auditory alteration, Mean difference / 5D-ASC Blissful state, Mean difference / 5D-ASC Changed meaning of percepts, Mean difference / 5D-ASC Complex imagery, Mean difference / 5D-ASC Disembodiment, Mean difference / 5D-ASC Dread of ego dissolution, Mean difference / 5D-ASC Elementary imagery, Mean difference / 5D-ASC Experience of unity, Mean difference / 5D-ASC Impaired control and cognition, Mean difference / 5D-ASC Insightfulness, Mean difference / 5D-ASC Oceanic boundlessness, Mean difference / 5D-ASC Spiritual experience, Mean difference / 5D-ASC Vigilance reduction, Mean difference / 5D-ASC Visual restructuralisation, Mean difference: Post-Treatment Day 0
Excerpt: In some embodiments, the Five Dimension Altered States of Consciousness questionnaire (5D-ASC) is utilized to evaluate the safety and/or efficacy of psilocybin. […] The 5 dimensions include oceanic boundlessness, anxious ego dissolution, visionary restructuralization, auditory alterations and reduction of vigilance.

[4] = Day 7, psilocybin 10 mg - placebo
[5] = Day 7, psilocybin 25 mg - 10 mg
[6] = Day 7, psilocybin 25 mg - placebo
[7] = Day 84, psilocybin 10 mg - placebo
[8] = Day 84, psilocybin 25 mg - 10 mg
[9] = Day 84, psilocybin 25 mg - placebo

**Q.** What does the source list for `CN(C)CCc1c[nH]c2cccc(OP(=O)(O)O)c12` [Psilocybin, psilocybin]?
**A.** TEQ change from baseline (LS mean) ([1]; psilocybin 10 mg): −0.1; TEQ change from baseline, LS mean difference ([1]; psilocybin 10 mg - placebo): 0.1; TEQ change from baseline (LS mean) ([1]; psilocybin 25 mg): 0.0; TEQ change from baseline, LS mean difference ([1]; psilocybin 25 mg - 10 mg): 0.1; TEQ change from baseline, LS mean difference ([1]; psilocybin 25 mg - placebo): 0.2; SVO angle change from baseline (LS mean) ([2]; Day 7, psilocybin 10 mg): 1.8; SVO type change from baseline (LS mean) ([2]; Day 7, psilocybin 10 mg): 0.1; SVO angle change from baseline, LS mean difference [2, 4]: 3.4; SVO type change from baseline, LS mean difference [2, 4]: 0.1; SVO angle change from baseline (LS mean) ([2]; Day 7, psilocybin 25 mg): 0.5; SVO type change from baseline (LS mean) ([2]; Day 7, psilocybin 25 mg): 0.1; SVO angle change from baseline, LS mean difference [2, 5]: −1.3; SVO type change from baseline, LS mean difference [2, 5]: −0.0; SVO angle change from baseline, LS mean difference [2, 6]: 2.1; SVO type change from baseline, LS mean difference [2, 6]: 0.1; SVO angle change from baseline (LS mean) ([2]; Day 84, psilocybin 10 mg): 0.1; SVO type change from baseline (LS mean) ([2]; Day 84, psilocybin 10 mg): 0.1; SVO angle change from baseline, LS mean difference [2, 7]: 3.4; SVO type change from baseline, LS mean difference [2, 7]: 0.1; SVO angle change from baseline (LS mean) ([2]; Day 84, psilocybin 25 mg): −0.9; SVO type change from baseline (LS mean) ([2]; Day 84, psilocybin 25 mg): 0.0; SVO angle change from baseline, LS mean difference [2, 8]: −1.0; SVO type change from baseline, LS mean difference [2, 8]: −0.0; SVO angle change from baseline, LS mean difference [2, 9]: 2.4; SVO type change from baseline, LS mean difference [2, 9]: 0.1; 5D-ASC Anxiety, Mean ([3]; Psilocybin 10 mg): 15.7; 5D-ASC Audio-visual synaesthesia, Mean ([3]; Psilocybin 10 mg): 74.7; 5D-ASC Auditory alteration, Mean ([3]; Psilocybin 10 mg): 20.3; 5D-ASC Blissful state, Mean ([3]; Psilocybin 10 mg): 59.1; 5D-ASC Changed meaning of percepts, Mean ([3]; Psilocybin 10 mg): 46.6; 5D-ASC Complex imagery, Mean ([3]; Psilocybin 10 mg): 53.0; 5D-ASC Disembodiment, Mean ([3]; Psilocybin 10 mg): 52.7; 5D-ASC Dread of ego dissolution, Mean ([3]; Psilocybin 10 mg): 21.7; 5D-ASC Elementary imagery, Mean ([3]; Psilocybin 10 mg): 76.5; 5D-ASC Experience of unity, Mean ([3]; Psilocybin 10 mg): 54.4; 5D-ASC Impaired control and cognition, Mean ([3]; Psilocybin 10 mg): 27.9; 5D-ASC Insightfulness, Mean ([3]; Psilocybin 10 mg): 53.9; 5D-ASC Oceanic boundlessness, Mean ([3]; Psilocybin 10 mg): 55.7; 5D-ASC Spiritual experience, Mean ([3]; Psilocybin 10 mg): 48.7; 5D-ASC Vigilance reduction, Mean ([3]; Psilocybin 10 mg): 35.3; 5D-ASC Visual restructuralisation, Mean ([3]; Psilocybin 10 mg): 59.1; 5D-ASC Anxiety, Mean difference ([3]; Psilocybin 10 mg-Placebo): 14.6; 5D-ASC Audio-visual synaesthesia, Mean difference ([3]; Psilocybin 10 mg-Placebo): 66.6; 5D-ASC Auditory alteration, Mean difference ([3]; Psilocybin 10 mg-Placebo): 18.6; 5D-ASC Blissful state, Mean difference ([3]; Psilocybin 10 mg-Placebo): 50.9; 5D-ASC Changed meaning of percepts, Mean difference ([3]; Psilocybin 10 mg-Placebo): 44.4; 5D-ASC Complex imagery, Mean difference ([3]; Psilocybin 10 mg-Placebo): 48.6; 5D-ASC Disembodiment, Mean difference ([3]; Psilocybin 10 mg-Placebo): 45.8; 5D-ASC Dread of ego dissolution, Mean difference ([3]; Psilocybin 10 mg-Placebo): 20.5; 5D-ASC Elementary imagery, Mean difference ([3]; Psilocybin 10 mg-Placebo): 63.6; 5D-ASC Experience of unity, Mean difference ([3]; Psilocybin 10 mg-Placebo): 47.1; 5D-ASC Impaired control and cognition, Mean difference ([3]; Psilocybin 10 mg-Placebo): 26.2; 5D-ASC Insightfulness, Mean difference ([3]; Psilocybin 10 mg-Placebo): 47.6; 5D-ASC Oceanic boundlessness, Mean difference ([3]; Psilocybin 10 mg-Placebo): 47.7; 5D-ASC Spiritual experience, Mean difference ([3]; Psilocybin 10 mg-Placebo): 44.6; 5D-ASC Vigilance reduction, Mean difference ([3]; Psilocybin 10 mg-Placebo): 20.0; 5D-ASC Visual restructuralisation, Mean difference ([3]; Psilocybin 10 mg-Placebo): 52.6; 5D-ASC Anxiety, Mean ([3]; Psilocybin 25 mg): 32.4; 5D-ASC Audio-visual synaesthesia, Mean ([3]; Psilocybin 25 mg): 75.4; 5D-ASC Auditory alteration, Mean ([3]; Psilocybin 25 mg): 30.7; 5D-ASC Blissful state, Mean ([3]; Psilocybin 25 mg): 61.9; 5D-ASC Changed meaning of percepts, Mean ([3]; Psilocybin 25 mg): 46.1; 5D-ASC Complex imagery, Mean ([3]; Psilocybin 25 mg): 64.9; 5D-ASC Disembodiment, Mean ([3]; Psilocybin 25 mg): 53.8; 5D-ASC Dread of ego dissolution, Mean ([3]; Psilocybin 25 mg): 31.9; 5D-ASC Elementary imagery, Mean ([3]; Psilocybin 25 mg): 76.9; 5D-ASC Experience of unity, Mean ([3]; Psilocybin 25 mg): 60.9; 5D-ASC Impaired control and cognition, Mean ([3]; Psilocybin 25 mg): 32.7; 5D-ASC Insightfulness, Mean ([3]; Psilocybin 25 mg): 64.4; 5D-ASC Oceanic boundlessness, Mean ([3]; Psilocybin 25 mg): 62.9; 5D-ASC Spiritual experience, Mean ([3]; Psilocybin 25 mg): 57.9; 5D-ASC Vigilance reduction, Mean ([3]; Psilocybin 25 mg): 45.7; 5D-ASC Visual restructuralisation, Mean ([3]; Psilocybin 25 mg): 65.2; 5D-ASC Anxiety, Mean difference ([3]; Psilocybin 25 mg-10 mg): 16.7; 5D-ASC Audio-visual synaesthesia, Mean difference ([3]; Psilocybin 25 mg-10 mg): 0.7; 5D-ASC Auditory alteration, Mean difference ([3]; Psilocybin 25 mg-10 mg): 10.5; 5D-ASC Blissful state, Mean difference ([3]; Psilocybin 25 mg-10 mg): 2.8; 5D-ASC Changed meaning of percepts, Mean difference ([3]; Psilocybin 25 mg-10 mg): −0.5; 5D-ASC Complex imagery, Mean difference ([3]; Psilocybin 25 mg-10 mg): 11.9; 5D-ASC Disembodiment, Mean difference ([3]; Psilocybin 25 mg-10 mg): 1.1; 5D-ASC Dread of ego dissolution, Mean difference ([3]; Psilocybin 25 mg-10 mg): 10.1; 5D-ASC Elementary imagery, Mean difference ([3]; Psilocybin 25 mg-10 mg): 0.4; 5D-ASC Experience of unity, Mean difference ([3]; Psilocybin 25 mg-10 mg): 6.5; 5D-ASC Impaired control and cognition, Mean difference ([3]; Psilocybin 25 mg-10 mg): 4.7; 5D-ASC Insightfulness, Mean difference ([3]; Psilocybin 25 mg-10 mg): 10.5; 5D-ASC Oceanic boundlessness, Mean difference ([3]; Psilocybin 25 mg-10 mg): 7.2; 5D-ASC Spiritual experience, Mean difference ([3]; Psilocybin 25 mg-10 mg): 9.2; 5D-ASC Vigilance reduction, Mean difference ([3]; Psilocybin 25 mg-10 mg): 10.3; 5D-ASC Visual restructuralisation, Mean difference ([3]; Psilocybin 25 mg-10 mg): 6.1; 5D-ASC Anxiety, Mean difference ([3]; Psilocybin 25 mg-Placebo): 31.3; 5D-ASC Audio-visual synaesthesia, Mean difference ([3]; Psilocybin 25 mg-Placebo): 67.3; 5D-ASC Auditory alteration, Mean difference ([3]; Psilocybin 25 mg-Placebo): 29.1; 5D-ASC Blissful state, Mean difference ([3]; Psilocybin 25 mg-Placebo): 53.6; 5D-ASC Changed meaning of percepts, Mean difference ([3]; Psilocybin 25 mg-Placebo): 43.9; 5D-ASC Complex imagery, Mean difference ([3]; Psilocybin 25 mg-Placebo): 60.5; 5D-ASC Disembodiment, Mean difference ([3]; Psilocybin 25 mg-Placebo): 46.9; 5D-ASC Dread of ego dissolution, Mean difference ([3]; Psilocybin 25 mg-Placebo): 30.6; 5D-ASC Elementary imagery, Mean difference ([3]; Psilocybin 25 mg-Placebo): 64.0; 5D-ASC Experience of unity, Mean difference ([3]; Psilocybin 25 mg-Placebo): 53.6; 5D-ASC Impaired control and cognition, Mean difference ([3]; Psilocybin 25 mg-Placebo): 30.9; 5D-ASC Insightfulness, Mean difference ([3]; Psilocybin 25 mg-Placebo): 58.2; 5D-ASC Oceanic boundlessness, Mean difference ([3]; Psilocybin 25 mg-Placebo): 54.9; 5D-ASC Spiritual experience, Mean difference ([3]; Psilocybin 25 mg-Placebo): 53.7; 5D-ASC Vigilance reduction, Mean difference ([3]; Psilocybin 25 mg-Placebo): 30.4; 5D-ASC Visual restructuralisation, Mean difference ([3]; Psilocybin 25 mg-Placebo): 58.7
